Assay results from US20230302042A1, “METHODS FOR THE PREVENTION OF CHOLESTEROL CRYSTAL EMBOLIZATION WITH CYCLODEXTRINS” (Beren Therapeutics P.B.C., priority 2020, published 2023).

Assays:
[1] = human subject; single-ascending intravenous doses 500, 750, 1,000, 1,000 mg/kg every 4 weeks; plasma pre-dose, post-dose, 1 hour and 24 hours post-dose; FIG. 1A
Description: A human subject was treated with 2-hydroxypropyl-beta-cyclodextrin with single-ascending doses administered intravenously every 4 weeks according to Table 1 below. […] For each dose, whole blood was collected pre-dose, post-dose (line flush), 1 hour post-dose, and 24 hours post-dose. Plasma was separated from the whole blood and subjected to a cholesterol crystal dissolution capacity (CCDC) assay using techniques similar to those described in the literature. The CCDC assay measures the ability of a sample to dissolve cholesterol crystals.

[2] = pre-dose human blood plasma incubated ex vivo with the cyclodextrin; FIG. 1B
Description: For each dose, whole blood was collected pre-dose, post-dose (line flush), 1 hour post-dose, and 24 hours post-dose. Plasma was separated from the whole blood and subjected to a cholesterol crystal dissolution capacity (CCDC) assay using techniques similar to those described in the literature. The CCDC assay measures the ability of a sample to dissolve cholesterol crystals.
Blood plasma pre-dose was also incubated ex vivo with 2-hydroxypropyl-beta-cyclodextrin and the ability of the plasma to dissolve cholesterol crystals was measured.

[3] = human subject; intravenous doses 500-1,000 mg/kg every 4 weeks; FIGS. 2A-2C
Description: (§1) A human subject was treated with 2-hydroxypropyl-beta-cyclodextrin with single-ascending doses administered intravenously every 4 weeks according to Table 1 below.
(§2) In this Example, a human subject was treated with 2-hydroxypropyl-beta-cyclodextrin according to Example 1, and plasma levels of 24S-hydroxycholesterol and 27-hydroxycholesterol were measured. […] 27-hydroxycholesterol is an endogenous LXR ligand leading to a downstream anti-inflammatory gene signature which may, in some embodiments, address the detrimental inflammatory response via NLRP3 inflammasome effects of cholesterol crystal embolization. The elevated 27-hydroxycholesterol is also a cellular marker of macrophage activation and increased activity for cholesterol crystal phagocytosis and clearance.

24S-hydroxycholesterol = conditions: human subject; intravenous doses 500-1,000 mg/kg every 4 weeks; FIGS. 2A-2C
Description: as §1, §2

27-hydroxycholesterol = conditions: human subject; intravenous doses 500-1,000 mg/kg every 4 weeks; FIGS. 2A-2C
Description: as §1, §2

ABCA1 = conditions: human subject; intravenous doses 500-1,000 mg/kg every 4 weeks; peripheral blood; FIGS. 3A-3D
Description: as §1
(§3) In this Example, a human subject was treated with 2-hydroxypropyl-beta-cyclodextrin according to Example 1, and mRNA levels of the LXR transcription factor-regulated genes, ABCA1 and ABCG1, were measured. […] ABCA1 and ABCG1 are important cholesterol transporters and are responsible for cholesterol efflux from cells, loading of HDL particles for reverse cholesterol transport (RCT), and excretion via the hepatic pathway, to potentially reduce the cholesterol and cholesterol crystal emboli released into the vasculature and stabilize ruptured atherosclerotic plaque.

ABCG1 = conditions: human subject; intravenous doses 500-1,000 mg/kg every 4 weeks; peripheral blood; FIGS. 3A-3D
Description: as §1, §3

For 2-hydroxypropyl-beta-cyclodextrin, the “capability of blood plasma to dissolve cholesterol crystals (CCDC) after treatment” value [1] was “increased capability”, the “capacity of plasma to dissolve cholesterol crystals after ex vivo incubation” value [2] was “increased capacity” and the “total cholesterol levels in plasma” value [3] was “remained stable”. For the same substance, the “plasma level of 24S-hydroxycholesterol” value (24S-hydroxycholesterol) was “increased plasma levels”, the “plasma level of 27-hydroxycholesterol” value (27-hydroxycholesterol) was “increased plasma levels” and the “mRNA level of ABCA1” value (ABCA1) was “increased mRNA levels”. For the same substance, the “mRNA level of ABCG1” value (ABCG1) was “increased mRNA levels”.
